These results are taken from US20260265238A1, “COMPOUNDS AND PHARMACEUTICAL COMPOSITIONS THAT DEGRADE SWI/SNF-RELATED MATRIX-ASSOCIATED ACTIN-DEPENDENT REGULATOR OF CHROMATIN SUBFAMILY A” (Plexium, Inc., priority 2023, published 2026).

For assay [1], the target named is T1, SMARCA4-HiBiT HeLa cells (protein which is expressed from the SMARCA4 gene) (Homo sapiens, UniProt P51532).
T1 construct: protein which is expressed from the SMARCA2 and SMARCA4 genes; host or cells: HeLa (SMARCA4-HiBiT engineered line)
Kind of assay: SMARCA4 degradation assay (HiBiT-fusion HeLa cell line, 24 h, luminescence). Type of assay: cell-based. The procedure, abridged: (§1)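 In this 24-hour cellular degradation readout, HiBiT-tagged HeLa lines received compound at up to typically 10 μM down to 300 pM in 10 points. After lysis with LgBiT and substrate, luminescence signals were used to build dose-response curves for DC50.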

Assay [2] addresses T2, SMARCA2-HiBiT HeLa cells (protein which is expressed from the SMARCA2 gene) (Homo sapiens, UniProt P51531).
T2 construct: protein which is expressed from the SMARCA2 and SMARCA4 genes; host or cells: HeLa (SMARCA2-HiBiT engineered line)
Kind of assay: SMARCA2 degradation assay (HiBiT-fusion HeLa cell line, 24 h, luminescence). Type of assay: cell-based. The procedure, abridged:
as §1

Some results are limits rather than exact numbers.

T2 sequence (P51531 whole entry): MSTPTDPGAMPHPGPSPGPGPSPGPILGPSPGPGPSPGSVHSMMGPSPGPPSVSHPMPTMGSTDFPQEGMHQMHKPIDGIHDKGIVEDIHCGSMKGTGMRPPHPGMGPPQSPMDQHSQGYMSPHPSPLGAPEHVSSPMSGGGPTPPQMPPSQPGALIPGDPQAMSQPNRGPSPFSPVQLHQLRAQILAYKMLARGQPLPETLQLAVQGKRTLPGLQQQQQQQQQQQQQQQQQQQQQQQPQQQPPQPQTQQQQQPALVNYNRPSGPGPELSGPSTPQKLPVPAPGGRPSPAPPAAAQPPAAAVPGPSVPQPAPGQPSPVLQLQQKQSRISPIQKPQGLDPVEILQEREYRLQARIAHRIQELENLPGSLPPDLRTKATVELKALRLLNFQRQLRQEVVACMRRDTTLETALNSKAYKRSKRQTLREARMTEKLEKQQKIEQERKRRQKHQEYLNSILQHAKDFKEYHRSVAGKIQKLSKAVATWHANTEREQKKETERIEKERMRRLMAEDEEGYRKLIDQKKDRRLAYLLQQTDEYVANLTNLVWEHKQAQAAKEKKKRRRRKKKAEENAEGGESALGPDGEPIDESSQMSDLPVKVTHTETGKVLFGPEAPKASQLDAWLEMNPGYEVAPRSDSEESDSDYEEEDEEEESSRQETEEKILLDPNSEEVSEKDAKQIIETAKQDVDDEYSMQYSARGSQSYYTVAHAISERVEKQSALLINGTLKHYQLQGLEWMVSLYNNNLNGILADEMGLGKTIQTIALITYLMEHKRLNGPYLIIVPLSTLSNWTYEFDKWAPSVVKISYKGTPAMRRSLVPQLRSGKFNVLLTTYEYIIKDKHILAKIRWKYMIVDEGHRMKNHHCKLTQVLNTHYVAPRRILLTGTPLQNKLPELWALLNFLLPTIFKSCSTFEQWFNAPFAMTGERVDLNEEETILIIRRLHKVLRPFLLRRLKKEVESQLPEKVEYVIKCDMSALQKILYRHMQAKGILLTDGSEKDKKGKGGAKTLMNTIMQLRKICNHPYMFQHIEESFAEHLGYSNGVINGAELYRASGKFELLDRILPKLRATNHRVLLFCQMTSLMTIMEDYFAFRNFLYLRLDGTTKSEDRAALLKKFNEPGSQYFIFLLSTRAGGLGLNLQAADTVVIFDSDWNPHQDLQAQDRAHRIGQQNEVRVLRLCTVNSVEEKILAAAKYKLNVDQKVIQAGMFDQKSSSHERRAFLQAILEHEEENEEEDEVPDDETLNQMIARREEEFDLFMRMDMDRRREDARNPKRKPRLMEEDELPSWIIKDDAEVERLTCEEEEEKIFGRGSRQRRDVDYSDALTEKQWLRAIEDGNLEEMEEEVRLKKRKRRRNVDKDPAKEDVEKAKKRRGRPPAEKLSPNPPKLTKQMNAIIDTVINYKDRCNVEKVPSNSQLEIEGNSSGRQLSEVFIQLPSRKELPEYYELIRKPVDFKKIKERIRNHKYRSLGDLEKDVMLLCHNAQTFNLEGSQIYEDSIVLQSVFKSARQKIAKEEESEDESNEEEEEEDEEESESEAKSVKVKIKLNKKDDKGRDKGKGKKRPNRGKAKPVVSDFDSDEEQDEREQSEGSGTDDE
T1 sequence (P51532 whole entry): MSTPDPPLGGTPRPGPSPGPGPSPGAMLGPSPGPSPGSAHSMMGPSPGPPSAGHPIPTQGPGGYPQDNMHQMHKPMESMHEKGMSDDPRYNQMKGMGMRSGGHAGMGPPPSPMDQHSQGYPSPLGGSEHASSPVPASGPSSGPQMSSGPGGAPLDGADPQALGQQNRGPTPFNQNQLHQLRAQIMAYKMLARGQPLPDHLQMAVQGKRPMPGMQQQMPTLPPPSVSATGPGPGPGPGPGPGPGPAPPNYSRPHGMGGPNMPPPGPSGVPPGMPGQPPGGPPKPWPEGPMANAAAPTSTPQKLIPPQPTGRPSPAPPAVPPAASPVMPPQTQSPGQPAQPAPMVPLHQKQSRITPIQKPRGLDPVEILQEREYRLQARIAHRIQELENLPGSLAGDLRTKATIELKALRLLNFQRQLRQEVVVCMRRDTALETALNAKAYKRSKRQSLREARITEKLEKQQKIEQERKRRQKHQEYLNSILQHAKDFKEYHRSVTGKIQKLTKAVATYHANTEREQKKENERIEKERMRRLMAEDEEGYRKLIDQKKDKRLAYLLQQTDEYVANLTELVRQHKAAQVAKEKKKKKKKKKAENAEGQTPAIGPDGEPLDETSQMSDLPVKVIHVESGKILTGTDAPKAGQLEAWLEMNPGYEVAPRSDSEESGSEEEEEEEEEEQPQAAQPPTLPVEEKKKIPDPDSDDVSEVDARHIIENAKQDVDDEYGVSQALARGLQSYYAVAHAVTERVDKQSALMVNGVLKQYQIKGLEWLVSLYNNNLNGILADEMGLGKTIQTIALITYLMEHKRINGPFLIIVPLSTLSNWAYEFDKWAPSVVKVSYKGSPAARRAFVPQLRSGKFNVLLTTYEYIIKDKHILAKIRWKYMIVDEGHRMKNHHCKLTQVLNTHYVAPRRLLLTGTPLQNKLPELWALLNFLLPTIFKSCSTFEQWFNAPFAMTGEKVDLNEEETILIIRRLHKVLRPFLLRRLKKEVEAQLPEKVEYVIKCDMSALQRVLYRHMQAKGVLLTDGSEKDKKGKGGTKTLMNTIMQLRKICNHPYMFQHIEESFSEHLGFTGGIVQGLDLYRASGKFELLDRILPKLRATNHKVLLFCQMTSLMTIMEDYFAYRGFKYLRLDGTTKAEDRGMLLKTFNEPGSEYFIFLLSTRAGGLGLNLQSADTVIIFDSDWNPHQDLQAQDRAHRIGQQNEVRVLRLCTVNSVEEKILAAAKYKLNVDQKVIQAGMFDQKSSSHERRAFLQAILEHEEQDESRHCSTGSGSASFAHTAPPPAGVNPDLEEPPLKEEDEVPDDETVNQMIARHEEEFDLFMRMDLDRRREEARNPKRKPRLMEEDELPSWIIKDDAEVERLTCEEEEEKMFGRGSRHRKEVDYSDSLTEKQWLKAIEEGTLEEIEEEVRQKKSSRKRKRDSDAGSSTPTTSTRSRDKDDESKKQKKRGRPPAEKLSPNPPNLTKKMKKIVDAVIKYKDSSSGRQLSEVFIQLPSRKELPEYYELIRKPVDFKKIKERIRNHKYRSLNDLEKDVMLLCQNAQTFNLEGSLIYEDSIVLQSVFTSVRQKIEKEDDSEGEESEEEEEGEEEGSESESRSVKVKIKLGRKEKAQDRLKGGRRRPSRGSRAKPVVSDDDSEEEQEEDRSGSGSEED

Turning to `CC(C)(C)OC(=O)N1Cc2cn(CC#Cc3nccc(N4CCCN(c5cc(-c6ccccc6O)nnc5N)CC4)n3)nc2C1` [Compound P-105, tert-butyl 2-(3-(4-(4-(3-amino-6-(2-hydroxyphenyl)pyridazin-4-yl)-1,4-diazepan-1-yl)pyrimidin-2-yl)prop-2-yn-1-yl)-2,6-dihydropyrrolo[3,4-c]pyrazole-5(4H)-carboxylate], in assay [1], the DC50 was less than 50 nM and the inhibition at 1 µM is more than 70%. Moreover, in assay [2], the DC50 fell in the range of 50 to 500 nM and the “SMARCA2 % Degradation @ 1 μM” value is given as “+++ (+++=>70%)”.

As to `C[C@@H]1CCN(c2cc(-c3ccccc3O)nnc2N)CCN1c1ccnc(C#CCn2ccnc2)n1` [Compound P-298, 0-{5-[(R)-4-{2-[3-(1-imidazolyl)-1-propynyl]-4-pyrimidinyl}-5-mcthyl-1,4-diazepan-1-yl]-6-amino-3-pyridazinyl}phenol], in assay [1], the DC50 was in the range of 50 to 500 nM and the inhibition at 1 µM fell in the range of 30 to 70%. Also, in assay [2], the DC50 lay within 50 to 500 nM and the “SMARCA2 % Degradation @ 1 μM” value was “+++ (+++=>70%)”.

In assay [1], `C[C@@H]1CCN(c2cc(-c3ccccc3O)nnc2N)CCN1c1ccnc(/C=C/C2CC2)n1` [Compound P-171, o-(5-{(R)-4-[2-(2-cyclopropylethenyl)-4-pyrimidinyl]-5-methyl-1,4-diazepan-1-yl}-6-amino-3-pyridazinyl)phenol] yielded a DC50 of 500 to 5000 nM and an inhibition at 1 µM of less than 30%. For the same compound, in assay [2], the DC50 was 50 to 500 nM and the “SMARCA2 % Degradation @ 1 μM” value is “++ (++=30-70%)”.

In assay [1], `Nc1nnc(-c2ccccc2O)cc1N1CCCN(c2ccnc(C#CCN3CCOCC3)n2)CC1` [Compound P-136, 2-(6-amino-5-(4-(2-(3-morpholinoprop-1-yn-1-yl)pyrimidin-4-yl)-1,4-diazepan-1-yl)pyridazin-3-yl)phenol] registered a DC50 of 50 to 500 nM and an inhibition at 1 µM of 30 to 70%. Besides, in assay [2], the DC50 is 50 to 500 nM and the “SMARCA2 % Degradation @ 1 μM” value is given as “++ (++=30-70%)”.

In assay [1], `Nc1nnc(-c2ccccc2O)cc1OC1CC2CN(c3ccnc(C#CCn4ccnc4)n3)CC2C1` (centres unmarked) [Compound P-219, o-[6-amino-5-(3-{2-[3-(1-imidazolyl)-1-propynyl]-4-pyrimidinyl}-3-azabicyclo[3.3.0]oct-7-yloxy)-3-pyridazinyl]phenol] showed a DC50 of 50 to 500 nM and an inhibition at 1 µM of more than 70%. Moreover, in assay [2], the 50% degradation concentration (DC50) lay within 50 to 500 nM and the “SMARCA2 % Degradation @ 1 μM” value is reported as “+++ (+++=>70%)”.

In assay [1], `CC(C)(C)OC(=O)NC/C=C/c1nccc(N2CCCN(c3cc(-c4ccccc4O)nnc3N)CC2)n1` [Compound P-114, tert-butyl (E)-(3-(4-(4-(3-amino-6-(2-hydroxyphenyl)pyridazin-4-yl)-1,4-diazepan-1-yl)pyrimidin-2-yl)allyl)carbamate] yielded a DC50 of 50 to 500 nM and an inhibition at 1 µM of 30 to 70%. For the same compound, in assay [2], the DC50 lay in the range of 50 to 500 nM and the “SMARCA2 % Degradation @ 1 μM” value is “+++ (+++=>70%)”.

In assay [1], `Nc1nnc(-c2ccccc2O)cc1N1C[C@H]2CN(c3ccnc(C#CCN4CC(F)(F)C4)n3)C[C@H]2C1` [Compound P-180] gave a DC50 of less than 50 nM and an inhibition at 1 µM of 30 to 70%. In assay [2], the DC50 was less than 50 nM and the “SMARCA2 % Degradation @ 1 μM” value is recorded as “++ (++=30-70%)”.

In assay [1], `CC1CN(c2ccnc(C#CCN)n2)CCN(c2cc(-c3ccccc3O)nnc2N)C1` (centres unmarked) [Compound P-39, 2-(6-amino-5-(4-(2-(3-aminoprop-1-yn-1-yl)pyrimidin-4-yl)-6-methyl-1,4-diazepan-1-yl)pyridazin-3-yl)phenol] gave a half-maximal degradation concentration (DC50) of 500 to 5000 nM and an inhibition at 1 µM of less than 30%. Moreover, in assay [2], the 50% degradation concentration (DC50) was in the range of 500 to 5000 nM and the “SMARCA2 % Degradation @ 1 μM” value is “+ (+=<30%)”.

In the case of `Nc1nnc(-c2ccccc2O)cc1N1C2CCC1CN(c1ccnc(C#CCN3CC4CC3C4)n1)C2` [Compound P-182, o-{6-amino-5-[3-(2-{3-(2-azabicyclo[2.1.1]hex-2-yl)-1-propynyl}-4-pyrimidinyl)-3,8-diazabicyclo[3.2.1]oct-8-yl]-3-pyridazinyl}phenol], in assay [1], the 50% degradation concentration (DC50) fell in the range of 50 to 500 nM and the inhibition at 1 µM was in the range of 30 to 70%. Also, in assay [2], the DC50 is 50 to 500 nM and the “SMARCA2 % Degradation @ 1 μM” value was “++ (++=30-70%)”.

As to `Nc1nnc(-c2ccccc2O)cc1N1CCCN(c2ccnc(C#CCN3CCn4nccc4C3)n2)CC1` [Compound P-146, 2-(6-amino-5-(4-(2-(3-(6,7-dihydropyrazolo[1,5-a]pyrazin-5(4H)-yl)prop-1-yn-1-yl)pyrimidin-4-yl)-1,4-diazepan-1-yl)pyridazin-3-yl)phenol], in assay [1], the DC50 is 50 to 500 nM and the inhibition at 1 µM was 30 to 70%. In assay [2], the DC50 fell in the range of 50 to 500 nM and the “SMARCA2 % Degradation @ 1 μM” value is recorded as “+++ (+++=>70%)”.

In assay [1], `Oc1ccccc1-c1cc(N2CC3CCC(C2)N3c2ccnc(C#CCN3CCCCC3)n2)cnn1` [Compound P-369, 0-(5-{8-[2-(3-piperidino-1-propynyl)-4-pyrimidinyl]-3,8-diazabicyclo[3.2.1]oct-3-y1}-3-pyridazinyl)phenol] yielded a DC50 of 500 to 5000 nM and an inhibition at 1 µM of less than 30%. Further, in assay [2], the DC50 was less than 50 nM and the “SMARCA2 % Degradation @ 1 μM” value is given as “++ (++=30-70%)”.

In assay [1], `C[C@@H]1CCN(c2cc(-c3ccccc3O)nnc2N)CCN1c1ccnc(C#CCN2CC3(COC3)C2)n1` [Compound P-213, o-{5-[(R)-5-methyl-4-(2-{3-(2-oxa-6-aza-6-spiro[3.3]heptyl)-1-propynyl}-4-pyrimidinyl)-1,4-diazepan-1-yl]-6-amino-3-pyridazinyl}phenol] registered a DC50 of more than 5000 nM and an inhibition at 1 µM of less than 30%. Moreover, in assay [2], the DC50 was 50 to 500 nM and the “SMARCA2 % Degradation @ 1 μM” value was “++ (++=30-70%)”.

In assay [1], `C[C@@H]1CCN(c2cc(-c3ccccc3O)nnc2N)CCN1c1ccnc(C#CCN2[C@H](C)COC[C@@H]2C)n1` [Compound P-260, o-{5-[(R)-4-(2-{3-[(3R,5S)-3,5-dimethyl-4-morpholiny1]-1-propynyl}-4-pyrimidinyl)-5-methyl-1,4-diazepan-1-yl]-6-amino-3-pyridaziny1}phenol] registered a DC50 of 50 to 500 nM and an inhibition at 1 µM of less than 30%. Besides, in assay [2], the DC50 is less than 50 nM and the “SMARCA2 % Degradation @ 1 μM” value is reported as “++ (++=30-70%)”.

Take `C[C@@H]1CCN(c2cc(-c3ccccc3O)nnc2N)CCN1c1ccnc(C#CC2CN(CC(F)(F)F)C2)n1` [Compound P-173, o-{5-[(R)-5-methyl-4-(2-{2-[1-(2,2,2-trifluoroethyl)-3-azetidinyl]ethynyl}-4-pyrimidinyl)-1,4-diazepan-1-y1]-6-amino-3-pyridazinyl}phenol]: in assay [1], the DC50 lay in the range of 50 to 500 nM and the inhibition at 1 µM fell in the range of 30 to 70%. Besides, in assay [2], the 50% degradation concentration (DC50) was less than 50 nM and the “SMARCA2 % Degradation @ 1 μM” value is “+++ (+++=>70%)”.

As to `Nc1nnc(-c2ccccc2O)cc1N1CCN(c2ccnc(C#CCNC(=O)c3cc4ncccn4n3)n2)C2CC21` (centres unmarked) [Compound P-28, N-(3-(4-(5-(3-amino-6-(2-hydroxyphenyl)pyridazin-4-yl)-2,5-diazabicyclo[4.1.0]heptan-2-yl)pyrimidin-2-yl)prop-2-yn-1-yl)pyrazolo[1,5-a]pyrimidine-2-carboxamide], in assay [1], the half-maximal degradation concentration (DC50) is less than 50 nM and the inhibition at 1 µM lay within 30 to 70%. Further, in assay [2], the DC50 was 50 to 500 nM and the “SMARCA2 % Degradation @ 1 μM” value was “++ (++=30-70%)”.

In assay [1], `C[C@@H]1CCC(=O)N1CC#Cc1ncc(F)c(N2CCN(c3cc(-c4ccccc4O)nnc3N)CC[C@H]2C)n1` [Compound P-175, (R)-1-[3-(4-{(R)-4-[3-amino-6-(o-hydroxyphenyl)-4-pyridazinyl]-7-methyl-1,4-diazepan-1-yl}-5-fluoro-2-pyrimidinyl)-2-propynyl]-5-methyl-2-pyrrolidinone] displayed a DC50 of 50 to 500 nM and an inhibition at 1 µM of less than 30%. Also, in assay [2], the DC50 is 50 to 500 nM and the “SMARCA2 % Degradation @ 1 μM” value is reported as “++ (++=30-70%)”.

In assay [1], `CSCC#Cc1nccc(N2CCCN(c3cc(-c4ccccc4O)nnc3N)CC2)n1` [Compound P-323, 0-[6-amino-5-(4-{2-[3-(methylthio)-1-propynyl]-4-pyrimidinyl}-1,4-diazepan-1-yl)-3-pyridazinyl]phenol] came in with a DC50 of 50 to 500 nM and an inhibition at 1 µM of 30 to 70%. In assay [2], the DC50 was in the range of 50 to 500 nM and the “SMARCA2 % Degradation @ 1 μM” value was “++ (++=30-70%)”.

On to `Nc1nnc(-c2ccccc2O)cc1N1CCCN(c2ccnc(C#CCn3ncc4ccncc43)n2)CC1` [Compound P-116, 2-(5-(4-(2-(3-(1H-pyrazolo[3,4-c]pyridin-1-yl)prop-1-yn-1-yl)pyrimidin-4-yl)-1,4-diazepan-1-yl)-6-aminopyridazin-3-yl)phenol], for which, in assay [1], the DC50 fell in the range of 50 to 500 nM and the inhibition at 1 µM lay in the range of 30 to 70%. Further, in assay [2], the 50% degradation concentration (DC50) lay in the range of 50 to 500 nM and the “SMARCA2 % Degradation @ 1 μM” value is “+++ (+++=>70%)”.

In assay [1], `CC(C)(C)OC(=O)N1CC(C#Cc2nccc(N3CCCN(c4cc(-c5ccccc5O)nnc4N)CC3)n2)C1` [Compound P-371, tert-butyl 3-[2-(4-{4-[3-amino-6-(o-hydroxyphenyl)-4-pyridaziny1]-1,4-diazepan-1-yl}-2-pyrimidinyl)ethynyl]-1-azetidinecarboxylate] registered a DC50 of 50 to 500 nM and an inhibition at 1 µM of 30 to 70%. For the same compound, in assay [2], the DC50 lay within 50 to 500 nM and the “SMARCA2 % Degradation @ 1 μM” value was “+++ (+++=>70%)”.

For the compound `CC(C)(C)OC(=O)NCC#Cc1nccc(N2C3CCC2CN(c2cc(-c4ccccc4O)nnc2N)CC3)n1` (centres unmarked) [Compound P-303, 4-(9-{2-[3-(tert-butoxycarbonylamino)-1-propynyl]-4-pyrimidinyl}-3,9-diazabicyclo[4.2.1]non-3-yl)-6-(o-hydroxyphenyl)-3-pyridazinamine], in assay [1], the DC50 is less than 50 nM and the inhibition at 1 µM lay within 30 to 70%. In assay [2], the DC50 was less than 50 nM and the “SMARCA2 % Degradation @ 1 μM” value is on record as “++ (++=30-70%)”.
